# What was measured:
# [1] = system: human fibroblast Hs68 cells; experiment: Scavenging test of ROS free radicals in UVB-irradiated cells; format: cell-based; conditions: UVB 80 mJ/cm^2, 24 hours
# Protocol: After incubated in an incubator (37° C., 5% CO2) for 24 hours, the ROS level was examined.
# MMP-1 = experiment: MMP expression, western blot, UVB-irradiated Hs68 cells; format: cell-based, human; conditions: 5 μM; UVB 40 mJ/cm^2; 48 hours
# Protocol: (§1) Human fibroblast Hs68 cells (5×10^5) (the number of Bioresource Collection and Research Center (BCRC): 60038) were counted and incubated in a culture dish with a diameter of 10 cm (the culture dish components were adjusted by L-glutamine (4 mM) to have 1.5 g/L NaHCO3, 4.5 g/L glucose, and 90% Dulbecco's Modified Eagle's Medium with 10% fetal bovine serum (FBS)). The medium was removed until human fibroblast Hs68 cells grow to a confluence of 80%, and the cells were then washed once with 5 ml PBS (phosphate buffered saline). Then, 3 ml phenol red-free medium which contain different concentrations (0 μM to 25 μM) of the compounds of formula (1) or formula (2) prepared in Example 1 were added into the culture dish. After incubating for 1 hour, the cells were irradiated by UV light (UVB with an intensity of 40 mJ/cm^2) for 15 seconds. Next, the phenol red-free medium which contains different concentrations (0 μM to 25 μM) of the compounds of formula (1) or formula (2) prepared in Example 1 were added into the culture dish sequentially. After incubation in an incubator (37° C., 5% CO2) for 48 hours, the cells were collected.
# (§2) The collected cells were treated with a sonication buffer (containing Na3VO4 (100 μM), phenylmethanesulfonyl fluoride (PMSFL, 100 mg/ml), leupeptin (20 mg/ml), Tris-HCl (pH 7.4, 50 μM), NaCl (37.5 μM), DL-dithiothretiol (250 μM), sodium deoxycholate (3 μM), EDTA (1 μM), SDS (0.1%), and Igepal™ CA-630 (Sigma-Aldrich, 1%)) and sonicated to rupture the cell membranes. Then, the organelles and fragments of the cells were precipitated by centrifugation, and the supernatant, which contains proteins in the cytosol was collected. Next, the obtained proteins were separated by SDS-PAGE, and transferred to a membrane by western blotting. Antibodies were used to recognize the targeted proteins, such as MMP-1, MMP-3, MMP-9, and actin. The images were recorded by a Luminescent imagination technology (LAS-4000, FUJIFILM), and the variation of the proteins expression levels were determined by a quantitative analysis software (multi Gauge 2.2, Steware Technology Inc.).
# MMP-3 = experiment: as above; format: cell-based, human; conditions: 25 μM; UVB 40 mJ/cm^2; 48 hours
# Protocol: as §1, §2
# p-ERK = experiment: Inhibition test of the phosphorylation of MAPK, western blot; format: cell-based, human; conditions: 10 μM; UVB 40 mJ/cm^2
# Protocol: (§3) It has been known that the skin photo-aging caused by UV rays will increase the content of MMPs in the dermis by the phosphorylation of MAPK. In this experiment, the effect of caffeamide derivative on the phosphorylation of MAPK in the cells was analyzed by western blotting.
# (§4) After being treated with the compound of formula (2) prepared in Example 1, the protein expression levels of the MAPKs induced by UVB were inhibited in a concentration dependent way. Specifically, when the concentration of the compound of formula (2) was 10 μM, the expression level of P-ERK was 1.1 times as compared to that of the untreated cells. When the concentration of the compound of formula (2) was 5 μM, the expression levels of p-JNK and p-p38 were both 1.1 times as compared to that of the untreated cells.
# p-JNK = experiment: as above; format: cell-based, human; conditions: 5 μM; UVB 40 mJ/cm^2
# Protocol: as §3, §4
# p-p38 = experiment: as above; format: cell-based, human; conditions: 5 μM; UVB 40 mJ/cm^2
# Protocol: as §3, §4
# Smad3 = experiment: Promotion test of the expression of collagen, western blot; format: cell-based, human; conditions: 25 μM; UVB 40 mJ/cm^2
# Protocol: (§5) It has been known that Smad3 protein can promote the expression level of procollagen-1, and Smad7 protein can inhibit the expression level of Smad3 protein. After cells were irradiated with UV rays, the expression levels of procollagen-1 and Smad3 protein will reduce and the expression level of Smad7 protein will increase. Therefore, in this experiment, the expression levels of intracellular procollagen-1 protein, Smad3 protein and Smad7 protein were analyzed by western blotting.
# (§6) Specifically, when the concentration of the compound of formula (2) was 25 μM, the protein expression level of Smad7 was 1.1 times as compared to that of the untreated cells.
# Smad7 = experiment: as above; format: cell-based, human; conditions: 25 μM; UVB 40 mJ/cm^2
# Protocol: as §5, §6
# procollagen-1 = experiment: as above; format: cell-based, human; conditions: 25 μM; UVB 40 mJ/cm^2
# Protocol: as §5, §6
# skin of white rabbit = experiment: Primary skin irritation test; format: in vivo, New Zealand white rabbit
# Protocol: First, 20 mg (low dosage) and 80 mg or 100 mg (high dosage) of the compounds of formula (1) and formula (2) prepared in Example 1 were dissolved in 1 ml of 40% PEG-400 solution, respectively. Next, a New Zealand white rabbit was fixed on a rabbit cage and the fur on its back was clipped. A color pen was used to draw six squares (2.5 cm×2.5 cm for each square) of smearing region. The six squares were divided into keratin intact group and keratin abraded group. In the keratin abraded group, a sterile needle was used to scrape four parallel lines inside the squares on the back of the white rabbit to damage the keratin layer, but without bleeding. Low dosage and high dosage of compounds of formula (1) or formula (2) were smeared inside the squares evenly. After 24 hours, the skin of white rabbit was wiped with physiologic saline solution to remove compounds of formula (1) or formula (2). […] The observation time should be extended when the irritation was shown.
# The statistical method of this test was analyzed by ANOVA (analysis of variance) and Student's t-test; p<0.05 indicates a statistical significance. Each experiment was performed over three times, and the results are shown by the standard error of the mean (mean±standard error). The results are shown in Table 7A, Table 7B, FIGS. 11a to 11d, and FIGS. 12a to 12d.
smiles,measurement,setting,value
O=C(C=Cc1ccc(O)c(O)c1)NCCc1ccc(Br)cc1 [Compound of formula (2)],Concentration of ROS (times compared to the untreated cells),[1]; 5 μM,1.0 ± 0.09 times
same,Concentration of ROS (times compared to the untreated cells),[1]; 10 μM,0.9 ± 0.02 times
same,Concentration of ROS (times compared to the untreated cells),"[1]; 10 μM, listed as compound of formula (2)",0.9 times
same,Concentration of ROS (times compared to the untreated cells),[1]; 25 μM,0.8 ± 0.04 times
same,Concentration of ROS (times compared to the untreated cells),"[1]; 25 μM, listed as compound of formula (2)",0.8 times
same,expression level of MMP-1 as compared to that of the untreated cells,MMP-1,1.1 times
same,expression level of MMP-3 as compared to that of the untreated cells,MMP-3,1.0 times
same,expression level of p-ERK as compared to that of the untreated cells,p-ERK,1.1 times
same,expression level of p-JNK as compared to that of the untreated cells,p-JNK,1.1 times
same,expression level of p-p38 as compared to that of the untreated cells,p-p38,1.1 times
same,"protein expression level of Smad3 inhibited by UVB, reversed to",Smad3,0.5 times
same,protein expression level of Smad7 as compared to that of the untreated cells,Smad7,1.1 times
same,"protein expression level of procollagen-1 decreased by UVB, reversed to",procollagen-1,0.4 times
same,"primary irritation index (PII), mean ± standard error","skin of white rabbit; 20 mg, 24 hour, abraded skin",0.0 ± 0.0
same,"primary irritation index (PII), single rabbits 1-3","skin of white rabbit; 20 mg, 24 hour, abraded skin",0
same,"primary irritation index (PII), mean ± standard error","skin of white rabbit; 20 mg, 24 hour, intact skin",0.0 ± 0.0
same,"primary irritation index (PII), single rabbits 1-3","skin of white rabbit; 20 mg, 24 hour, intact skin",0
same,"primary irritation index (PII), mean ± standard error","skin of white rabbit; 20 mg, 72 hour, abraded skin",0.0 ± 0.0
same,"primary irritation index (PII), single rabbits 1-3","skin of white rabbit; 20 mg, 72 hour, abraded skin",0
same,"primary irritation index (PII), mean ± standard error","skin of white rabbit; 20 mg, 72 hour, intact skin",0.0 ± 0.0
same,"primary irritation index (PII), single rabbits 1-3","skin of white rabbit; 20 mg, 72 hour, intact skin",0
same,"primary irritation index (PII), mean ± standard error","skin of white rabbit; 80 mg, 24 hour, abraded skin",0.7 ± 0.6
same,"primary irritation index (PII), mean ± standard error","skin of white rabbit; 80 mg, 24 hour, intact skin",0.0 ± 0.0
same,"primary irritation index (PII), single rabbits 1-3","skin of white rabbit; 80 mg, 24 hour, intact skin",0
same,"primary irritation index (PII), mean ± standard error","skin of white rabbit; 80 mg, 72 hour, abraded skin",0.3 ± 0.6
same,"primary irritation index (PII), mean ± standard error","skin of white rabbit; 80 mg, 72 hour, intact skin",0.0 ± 0.0
same,"primary irritation index (PII), single rabbits 1-3","skin of white rabbit; 80 mg, 72 hour, intact skin",0

# — patent US9211244B2, “Method for anti-skin aging using caffeamide derivative” (CHINA MEDICAL UNIVERSITY, priority 2013, dated 2015)
